Experiments:
Details in all cases: exposure time: 72 h
E28 [1] = patient-derived glioblastoma stem cells of classical subtype; assay: phenotypic distance (Euclidean, principal components) from DMSO controls (arbitrary units); higher = stronger morphological change
E34 [2] = patient-derived glioblastoma stem cells of proneural subtype; assay: as above
E31 [3] = patient-derived glioblastoma stem cells of proneural subtype; assay: as above
E13 [4] = patient-derived glioblastoma stem cells of classical subtype; assay: as above
E57 [5] = patient-derived glioblastoma stem cells of mesenchymal subtype; assay: as above
E21 [6] = patient-derived glioblastoma stem cells of mesenchymal subtype; assay: as above
FT3469 [7] = normal neural stem cell line; assay: as above
E28 [8] = assay: surviving fraction (nuclei count normalised to DMSO); higher = more cells surviving (less toxic)
E34 [9] = assay: as above
E31 [10] = assay: as above
E13 [11] = assay: as above
E57 [12] = assay: as above
E21 [13] = assay: as above
FT3469 [14] = assay: as above
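Throughout, for phenotypic distance (Euclidean, principal components) from DMSO controls: cell Painting imaging in 384-well plates, CellProfiler features reduced to at least 20 principal components, Euclidean distance versus same-plate DMSO vehicle wells (0.1% v/v), median over six images per well.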
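Throughout, for surviving fraction (nuclei count normalised to DMSO): nuclei counted by high-content imaging of Hoechst-stained cells in laminin-coated 384-well plates, relative to 0.1% DMSO vehicle wells, with staurosporine as cell-death control.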

Cc1ccc2c(c1)C1(CCN(CCc3nc(-c4ccccc4)oc3C)CC1)OC(=O)N2
Details	phenotypic distance	surviving fraction
E13 [4], 4.1 nM	2.72	–
E13 [4], 12.3 nM	2.97	–
E13 [4], 37 nM	1.42	–
E13 [4], 111.1 nM	0.52	–
E13 [4], 333.3 nM	0.547	–
E13 [4], 1000 nM	0.819	–
E13 [4], 3000 nM	0.711	–
E13 [11], 4.1 nM	–	0.988
E13 [11], 12.3 nM	–	1.09
E13 [11], 37 nM	–	1.12
E13 [11], 111.1 nM	–	1.07
E13 [11], 333.3 nM	–	1.12
E13 [11], 1000 nM	–	1.11
E13 [11], 3000 nM	–	0.943
E21 [6], 4.1 nM	1.42	–
E21 [6], 12.3 nM	0.605	–
E21 [6], 37 nM	4.58	–
E21 [6], 111.1 nM	0.716	–
E21 [6], 333.3 nM	0.433	–
E21 [6], 1000 nM	0.642	–
E21 [6], 3000 nM	1.29	–
E21 [13], 4.1 nM	–	0.932
E21 [13], 12.3 nM	–	0.961
E21 [13], 37 nM	–	0.956
E21 [13], 111.1 nM	–	1.07
E21 [13], 333.3 nM	–	0.988
E21 [13], 1000 nM	–	0.923
E21 [13], 3000 nM	–	0.891
E28 [1], 4.1 nM	0.761	–
E28 [1], 12.3 nM	1.33	–
E28 [1], 37 nM	0.46	–
E28 [1], 111.1 nM	0.636	–
E28 [1], 333.3 nM	0.695	–
E28 [1], 1000 nM	0.667	–
E28 [1], 3000 nM	0.74	–
E28 [8], 4.1 nM	–	1.07
E28 [8], 12.3 nM	–	0.977
E28 [8], 37 nM	–	1.11
E28 [8], 111.1 nM	–	0.99
E28 [8], 333.3 nM	–	1.11
E28 [8], 1000 nM	–	0.938
E28 [8], 3000 nM	–	1.1
E31 [3], 4.1 nM	1.24	–
E31 [3], 12.3 nM	0.61	–
E31 [3], 37 nM	0.972	–
E31 [3], 111.1 nM	0.485	–
E31 [3], 333.3 nM	0.605	–
E31 [3], 1000 nM	0.491	–
E31 [3], 3000 nM	0.687	–
E31 [10], 4.1 nM	–	1.04
E31 [10], 12.3 nM	–	0.99
E31 [10], 37 nM	–	1.01
E31 [10], 111.1 nM	–	0.979
E31 [10], 333.3 nM	–	1.04
E31 [10], 1000 nM	–	0.996
E31 [10], 3000 nM	–	0.955
E34 [2], 4.1 nM	0.895	–
E34 [2], 12.3 nM	2	–
E34 [2], 37 nM	0.587	–
E34 [2], 111.1 nM	0.749	–
E34 [2], 333.3 nM	0.998	–
E34 [2], 1000 nM	0.765	–
E34 [2], 3000 nM	0.942	–
E34 [9], 4.1 nM	–	0.851
E34 [9], 12.3 nM	–	1.03
E34 [9], 37 nM	–	0.875
E34 [9], 111.1 nM	–	0.878
E34 [9], 333.3 nM	–	1.17
E34 [9], 1000 nM	–	1.07
E34 [9], 3000 nM	–	1.05
E57 [5], 4.1 nM	0.955	–
E57 [5], 12.3 nM	0.495	–
E57 [5], 37 nM	0.64	–
E57 [5], 111.1 nM	0.513	–
E57 [5], 333.3 nM	0.49	–
E57 [5], 1000 nM	0.453	–
E57 [5], 3000 nM	0.766	–
E57 [12], 4.1 nM	–	1.05
E57 [12], 12.3 nM	–	1.03
E57 [12], 37 nM	–	0.923
E57 [12], 111.1 nM	–	1.01
E57 [12], 333.3 nM	–	1.04
E57 [12], 1000 nM	–	0.967
E57 [12], 3000 nM	–	1.02
FT3469 [7], 4.1 nM	1.5	–
FT3469 [7], 12.3 nM	0.887	–
FT3469 [7], 37 nM	0.645	–
FT3469 [7], 111.1 nM	1.16	–
FT3469 [7], 333.3 nM	0.543	–
FT3469 [7], 1000 nM	0.575	–
FT3469 [7], 3000 nM	0.661	–
FT3469 [14], 4.1 nM	–	0.873
FT3469 [14], 12.3 nM	–	1.15
FT3469 [14], 37 nM	–	1.04
FT3469 [14], 111.1 nM	–	0.795
FT3469 [14], 333.3 nM	–	1.1
FT3469 [14], 1000 nM	–	1.03
FT3469 [14], 3000 nM	–	0.991

From the supplement of paper PMC13207355
